Ends that are not written are not given here. * marks the point of attachment. Octanoyl = CCCCCCCC(=O)*

Series [1] in a line: Cumulative body weight gain after once-daily subcutaneous treatment in 129Sv mice. Type of series: in vivo. To be noted: male wild-type 129Sv mice, once daily for seven days, 72 mg/kg subcutaneously, n=8 per group. The procedure:
FIG. 2 is a line graph showing cumulative body weight gain of un-acylated ghrelin splice variant-treated (SEQ ID NO:2) 129Sv mice compared to vehicle-treated controls. Un-acylated ghrelin splice variant reduces body weight gain in male wild-type mice (n=8 per group). In mice treated once daily for seven days with un-acylated ghrelin splice variant (72 mg/kg, subcutaneously), cumulative weight gain of the SEQ ID NO:2 group was 25% times less than the vehicle-injected control animals.

Series [2] in a line: Serum cholesterol and lipid levels (cholesterol, triglycerides, LDL, HDL) after subcutaneous administration in 129Sv mice. The conditions noted are these: 129Sv male mice, subcutaneous once daily, n=10 per group; for Reduced levels of cholesterol (serum cholesterol concentration): compared to vehicle-administered controls. The class given is in vivo. The source says: FIG. 1A is a bar graph showing serum cholesterol concentration after subcutaneous administration of acylated ghrelin splice variant (acylated SEQ ID NO:2) or un-acylated ghrelin splice variant (SEQ ID NO:2) compared to SEQ ID NO:3 and vehicle-administered controls in 129Sv mice. Reduced levels of cholesterol in the acylated ghrelin splice variant (acylated SEQ ID NO:2) and un-acylated ghrelin splice variant (SEQ ID NO:2) treated groups were observed (5% & 6%, respectively).
(§1) Acylated ghrelin splice variant (20 μg; 29 amino acids in length (SEQ ID NO:2)) or the Vehicle (1.6% mannitol) was administered once daily for 14 successive days, via the subcutaneous (SC) route, to groups comprising n=10 129Sv male mice. No mortality occurred in any of the animals throughout the entire study period. […] All animals were subjected to terminal bleeding, under CO2 anesthesia, immediately prior to euthanasia. Terminal blood collection was performed serially as per animal number, and not as per group. • Hematology: Blood samples (at least 100 μl) were collected into pre-labeled EDTA coated tubes. The tubes were pre-labeled and contain the following information:
Study number, group number, animal number and date. The samples were kept until delivery and analysis at 2-8 ° C. Hematology parameters that were tested using Sysmex KX-21™are: WBC, RBC, HGB, HCT, MCV, MCH, MCHC, Platelets. Differential count was preformed manually. • Biochemistry: Blood for biochemistry analysis was collected into non-coated pre-labeled tubes. The tubes were pre-labeled and contained the following information: Study number, group number, animal number and date. Following clotting, the blood from each animal was centrifuged, and the serum was collected into two pre-labeled tubes and submitted for analysis as follows: Serum, 250 μl, was kept at 2-8° C. until analysis. The samples were subjected to the following listed tests using Hitachi 917 system: Creatinine, Total bilirubin, Glucose, Triglycerides, Cholesterol, HDL, LDL, Total protein, Globulin, Albumin, Urea, Potassium, Phosphorus, Calcium, Sodium, Chloride, sGOT, SGPT, ALP. • Urinalysis: Urine was collected into pre-labeled tubes (as above) from all animals (where possible) prior to and/or after euthanasia. For all surviving animals, urine collection was performed serially as per animal number, and not as per group. An attempt was made to attain the maximal amount as possible to perform the tests listed below. Urinalysis is performed using a commercial test stick (Bayer, Multistix® 10SG) applied to urine sample and evaluating the following parameters: glucose, ketone, pH value, leukocytes, blood, density, nitrite, bilirubin, urobilinogen and protein. • Necropsy Procedures and Macroscopic Examination: All animals were subjected to a fully detailed necropsy. For all surviving animals, necropsy was performed serially as per animal number, and not as per group, immediately following the scheduled terminal bleeding. At necropsy, a thorough examination is made and any abnormality or gross pathological changes in tissues and/or organs are observed and recorded. • Organ/Tissue Collection: The organs and tissues listed (Brain, Liver, Kidney, Stomach, Pancreas, Lungs, Spleen, Heart, Epididymal WAT, Retroperitoneal WAT, Interscapular BAT) were excised and weighed wet as soon as possible after excision and removal of the attached fat and other connective tissues. All organs from one animal were collected into one container, pre-labeled with the following information: Study number, group number, animal number and date. • Results: Reduced levels of cholesterol in the acylated ghrelin splice variant and un-acylated ghrelin splice variant treated groups were observed (5% & 6%, respectively; See FIG. 1A). Reduced levels of HDL in the acylated ghrelin splice variant and un-acylated ghrelin splice variant treated groups (5% & 6%, respectively; see FIG. 1B).

A short description of series [3]: Plasma glucose level after 7 day treatment in 129Sv mice. Type of series: in vivo. To be noted: 129 male mice, 7.2 mg/kg peptide, end of study. The source says:
FIG. 3A is a bar graph showing percentage of plasma glucose reduction after 7 day treatment with acylated ghrelin splice variant peptides (acylated SEQ ID NO:2, SEQ ID NO:3 and SEQ ID NO:4) or ghrelin in 129Sv mice. The percent reduction is 3.2%; 2% and 4.8% respectively while treatment with ghrelin increased plasma glucose level by 1.3%.
FIG. 3B is a bar graph showing plasma glucose levels after 7 day treatment with acylated ghrelin splice variant peptides (acylated SEQ ID NO:2, SEQ ID NO:3 and SEQ ID NO:4) or ghrelin. 129 male mice were treated for seven days with 7.2 mg/kg peptide. Plasma glucose levels were measured at the end of the study.

Series [4] is described as follows: Mortality and clinical signs during subcutaneous administration study. The class given is in vivo, 129Sv mice. The conditions noted are these: 20 μg once daily for 14 successive days, 129Sv male mice, n=10. The procedure:
as §1, with “information: […]” for “information:”

As for “GSSFLSPEHQRVQVRPPHKAPHVVPALPL (listed as Homo sapiens) [un-acylated ghrelin splice variant, 29 amino acid human ghrelin splice variant, un-acylated]”, the “Cumulative weight gain less than the vehicle-injected control animals” value in series [1] is reported as 25%. For the same substance, in series [2] (compared to vehicle), the “Level of triglycerides (in words)” value is given as “remained unchanged” and the “Reduced levels of HDL” value was 6%. Moreover, the “Reduced levels of cholesterol (serum cholesterol concentration)” value in series [2] amounted to 6%.

As to “GSSFLSPEHQRVQVRPPHKAPHVVPALPL (not fully specified; listed as Homo sapiens) [acylated SEQ ID NO:2, 29 amino acid human ghrelin splice variant, acylated]”, the “Percentage of plasma glucose reduction” value in series [3] came out at 3.2%. For the same substance, in series [2] (compared to vehicle), the “Increased levels of triglycerides” value came to 9% and the “LDL levels (in words)” value is on record as “remained unchanged”. The “Reduced levels of HDL” value in series [2] (compared to vehicle, listed as acylated ghrelin splice variant) is listed as 5%. The “Reduced levels of cholesterol (serum cholesterol concentration)” value in series [2] (listed as acylated ghrelin splice variant) worked out at 5%. Besides, in series [4], the Clinical signs result is “No clinical signs” and the Mortality entry is on record as “No mortality”.

Consider “GSSFLSPEHQRVQVRPPHKAPHVV (also: acylated (site not given here); listed as Homo sapiens) [SEQ ID NO:4, acylated 24 amino acid human ghrelin splice variant]”, for which the “Percentage of plasma glucose reduction” value in series [3] is given as 4.8%.

Turning to “GSS (CO-C7H15) FLSPEHQRVQVRPPHKAPH (GSS(Octanoyl)FLSPEHQRVQVRPPHKAPH; listed as Homo sapiens) [SEQ ID NO:3, 22 amino acid human ghrelin splice variant, acylated]”, in series [3], the “Percentage of plasma glucose reduction” value is 2%. Further, the “Increased levels of triglycerides” value in series [2] (compared to vehicle) amounted to 15%.

For “ghrelin: polypeptide of GenBank NP_057446; mature 28 amino acid peptide bearing n-octanoyl on the third serine (GSS(Octanoyl)FLSPEHQRVQQRKESKKPPAKLQPR; UniProt Q9UBU3 24-51, looked up) [reference compound]”, the “Increase of plasma glucose level” value in series [3] is given as 1.3%.
